For this test, the target named is T1, human TRPV1 (Homo sapiens, UniProt Q8NER1).
T1 construct: using primers designed surrounding the complete hTRPV1 open reading frame; expressed in transfected cells; host or cells: CHO-K1 cells stably transfected with pcDNA3.1(-)-hVR1 plasmid
The test is described as follows: Capsaicin-based assay, Protocol 2 (TRPV1/CHO cells, Fluo-4, FLIPR). Conditions: capsaicin 100 nM final, mean ± SEM, number of trials in parentheses, read-out: TRPV1 IC50 Potency, Human Capsaicin CHO (hCAP-CHO). It is filed as cell-based. From the text: The TRPV1/CHO cell line was generated as described below. […] The resulting PCR products were purified from agarose gels using Gel Band Purification Kit (GE Healthcare Bioscience) and were subcloned into pCR-Blunt vector (Invitrogen). The cloned cDNA was fully sequenced using a fluorescent dye-terminator reagent (BigDye Terminator ver3.1 Cycle Sequencing Kit, Applied Biosystems) and ABI Prism 3100 genetic analyzer (Applied Biosystems). The pCR-Blunt vector containing the hTRPV1 cDNA was subjected to restriction digestion with EcoRI. The restriction fragment was subcloned into expression vector pcDNA3.1 (-) (Invitrogen) and named pcDNA3.1 (-)-hVR1 plasmid. The sequence of the cDNA encoding TRPV1 is available at GenBank accession number AJ277028. […] The cells were transfected with the pcDNA3.1 (-)-hVR1 plasmid using FuGENE6 (Roche) according to the manufacturer's protocol. 24 hr after transfection, neomycin-resistant cells were selected using 1 mg/mL G418 (Nacalai Tesque). […] The cells expressing hTRPV1 were cultured in the growth medium supplemented with 1 mg/mL G418. […] Subsequently, the cells were loaded by incubation in 0.1 mL of wash buffer containing Fluo-4 at 3 μM final concentration. After 1 hour, the cells were washed twice with 0.2 mL wash buffer and resuspended in 0.1 mL wash buffer. The plates were then transferred to a Fluorescence Imaging Plate Reader (Molecular Devices). Fluorescence intensity was monitored for 15 seconds to establish a baseline. […] The final concentration of the compound was adjusted to range from 100 μM to 1.5625 μM. […] Data were collected over the entire time course and analyzed using Excel and the curve-fitting formula GraphPad Prism.

T1 sequence (Q8NER1 whole entry): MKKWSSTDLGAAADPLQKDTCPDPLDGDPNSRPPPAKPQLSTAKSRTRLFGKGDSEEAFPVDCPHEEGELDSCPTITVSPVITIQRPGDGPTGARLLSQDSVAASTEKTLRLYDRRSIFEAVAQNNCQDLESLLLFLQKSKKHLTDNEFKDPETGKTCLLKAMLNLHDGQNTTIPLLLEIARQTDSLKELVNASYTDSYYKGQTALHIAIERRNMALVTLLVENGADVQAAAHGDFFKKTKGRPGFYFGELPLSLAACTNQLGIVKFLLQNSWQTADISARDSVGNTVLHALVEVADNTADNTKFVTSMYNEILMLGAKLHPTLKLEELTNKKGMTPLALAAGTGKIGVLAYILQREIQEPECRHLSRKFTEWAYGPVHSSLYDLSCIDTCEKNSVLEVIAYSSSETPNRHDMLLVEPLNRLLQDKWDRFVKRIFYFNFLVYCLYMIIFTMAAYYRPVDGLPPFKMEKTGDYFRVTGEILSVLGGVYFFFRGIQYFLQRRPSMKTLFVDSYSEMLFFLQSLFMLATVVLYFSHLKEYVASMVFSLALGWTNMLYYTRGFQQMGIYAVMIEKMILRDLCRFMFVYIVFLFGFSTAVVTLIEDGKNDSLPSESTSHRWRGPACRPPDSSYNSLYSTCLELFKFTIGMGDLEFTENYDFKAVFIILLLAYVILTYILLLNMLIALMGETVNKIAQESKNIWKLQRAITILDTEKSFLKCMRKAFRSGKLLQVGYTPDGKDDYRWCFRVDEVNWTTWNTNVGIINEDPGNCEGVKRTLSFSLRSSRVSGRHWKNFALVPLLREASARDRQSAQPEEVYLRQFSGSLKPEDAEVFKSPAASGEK

By IC50 is commonly meant the concentration that inhibits the measured activity by half. For `CS(=O)(=O)NCc1cnc(C2=CCN(C(=O)Nc3ccc(C(F)(F)F)cc3)CC2)c(Cl)c1` [Compound M4], the 50% inhibitory concentration (IC50) was 471 ± 127 nM.

`O=C(Nc1nc2ccc(F)cc2s1)N1CC=C(c2ncc([C@H](O)CO)cc2Cl)CC1` [Compound R1]: the IC50 was determined as 51 ± 18.8 nM.

For the compound `O=C(Nc1ccc(C(F)(F)F)cc1)N1CCC(F)(c2ncc(C(O)(CO)CO)cc2Cl)CC1` [Compound T5], the IC50 was 451 ± 92.4 nM.

Consider `O=C(Nc1nc2ccc(Cl)cc2[nH]1)N1CCC(F)(c2ncc([C@@H](O)CO)cc2F)CC1` [Compound J5], for which the IC50 turned out to be 1880 ± 634 nM.

In the case of `O=C(Nc1ccc(C(F)(F)F)c(F)c1)N1CCC(F)(c2ncc([C@@H](O)CO)cc2Cl)CC1` [Compound U5], the IC50 was 19.9 ± 6.9 nM.

For the compound `Cc1cc(NC(=O)N2CCC(F)(c3ncc([C@H](O)CO)cc3F)CC2)ccc1OC(F)(F)F` [Compound R3], the IC50 turned out to be 15.5 ± 3.5 nM.

With `O=C(Nc1ccc(C(F)(F)F)cc1)N1CC=C(c2ncc(C(CO)CO)cc2Cl)CC1` [Compound O4, 4-(3-chloro-5-(1,3-dihydroxypropan-2-yl)pyridin-2-yl)-N-(4-(trifluoromethyl)phenyl)-5,6-dihydropyridine-1(2H)-carboxamide], the IC50 came to 1520 ± 339 nM.

Regarding `CN(C)CC(O)c1cnc(C2=CCN(C(=O)Nc3ccc(C(F)(F)F)cc3)CC2)c(Cl)c1` (single isomer, unassigned) [Compound L5], the half-inhibitory concentration (IC50) was more than 10000 nM.

In the case of `COc1cc(NC(=O)N2CCC(F)(c3ncc([C@H](O)CO)cc3Cl)CC2)ccc1C(F)(F)F` [Compound V3], the half-inhibitory concentration (IC50) stood at 34 ± 9.2 nM.

Take `O=C(Nc1ccc(C(F)(F)F)cc1)N1CCC(F)(c2ncc([C@@H](O)CO)cc2F)CC1` [Compound X4]: the IC50 is 38.4 ± 8 nM.

For `O=C(Nc1ccc(OC(F)(F)F)c(Cl)c1)N1CC=C(c2ncc([C@H](O)CO)cc2Cl)CC1` [Compound H2], the IC50 came to 118 ± 22.1 nM.

On to `O=C(Nc1ccc(C(F)(F)F)cn1)N1CC=C(c2ncc([C@H](O)CO)cc2F)CC1` [Compound K4], for which the IC50 stood at 210 ± 19.5 nM.

As for `CC1(C)CCOc2cc(NC(=O)N3CC=C(c4ncc([C@H](O)CO)cc4F)CC3)ccc21` [Compound A4], the IC50 was 55.1 ± 8.6 nM.

`O=C(Nc1nc2ccc(Cl)cc2[nH]1)N1CC=C(c2ncc([C@H](O)CO)cc2Cl)CC1` [Compound P4]: the IC50 was determined as 1810 ± 302 nM.

As to `O=C(Nc1nc2ccc(F)cc2s1)N1CCC(F)(c2ncc([C@@H](O)CO)cc2F)CC1` [Compound N5], the IC50 worked out at 140 nM.

On to `O=C(Nc1nc2ccc(F)cc2s1)N1CCC(F)(c2ncc([C@H](O)CO)cc2F)CC1` [Compound F5], for which the IC50 was 166 ± 24.7 nM.

As to `O=C(Nc1ccc(C(F)(F)F)cc1)N1CCC(F)(c2ncc(C(O)CO)cc2Cl)CC1` (stereo not shown) [Compound A1], the IC50 is 7 ± 1.8 nM.

On to `O=C(Nc1ccc(S(=O)(=O)N2CCCC2)c(C(F)(F)F)c1)N1CC=C(c2ncc([C@@H](O)CO)cc2Cl)CC1` [Compound C3], for which the IC50 is 541 ± 216 nM.

With `CC(C)(C)c1ccc(NC(=O)N2CC=C(c3ncc([C@@H](O)CO)cc3F)CC2)cc1` [Compound E1], the IC50 was 18.5 ± 4.9 nM.

As to `CCCOc1cc(NC(=O)N2CC=C(c3ncc([C@H](O)CO)cc3Cl)CC2)ccc1C(F)(F)F` [Compound O1], the concentration for half-maximal inhibition (IC50) was determined as 41.1 ± 17.8 nM.

With `O=C(Nc1ccc(Cl)c(C(F)(F)F)c1)N1CC=C(c2ncc([C@H](O)CO)cc2Cl)CC1` [Compound T2], the IC50 worked out at 226 ± 69.3 nM.

Regarding `O=C(Nc1ccc(S(=O)(=O)C(F)(F)F)cc1)N1CC=C(c2ncc([C@@H](O)CO)cc2Cl)CC1` [Compound O3], the IC50 was found to be 46 ± 11.3 nM.

On to `O=C(Nc1nc2ccc(Cl)cc2[nH]1)N1CCC(F)(c2ncc([C@H](O)CO)cc2F)CC1` [Compound R4], for which the IC50 was found to be 3280 ± 761 nM.

Turning to `O=C(Nc1ccc(S(=O)(=O)C(F)(F)F)cc1)N1CC=C(c2ncc([C@H](O)CO)cc2F)CC1` [Compound P1], the IC50 is 50.5 ± 9.5 nM.

Take `O=C(Nc1ccc(C(F)(F)F)cn1)N1CC=C(c2ncc(CCO)cc2Cl)CC1` [Compound D6]: the IC50 worked out at 621 ± 117 nM.

For the compound `O=C(Nc1nc2ccc(Cl)cc2[nH]1)N1CC=C(c2ncc([C@@H](O)CO)cc2Cl)CC1` [Compound Q4], the 50% inhibitory concentration (IC50) is 2900 ± 302 nM.

Regarding `COc1cc(NC(=O)N2CCC(F)(c3ncc([C@@H](O)CO)cc3Cl)CC2)ccc1C(F)(F)F` [Compound E4], the IC50 was found to be 75.7 ± 12.8 nM.

In the case of `O=C(Nc1nc2ccc(F)cc2s1)N1CC=C(c2ncc([C@H](O)CO)cc2F)CC1` [Compound L4], the IC50 is 439 ± 140 nM.

For the compound `CN1CCCc2ccc(NC(=O)N3CC=C(c4ncccc4F)CC3)cc21` [Compound K5], the IC50 was 2750 ± 542 nM.

For `CC1(c2ncc([C@@H](O)CO)cc2F)CCN(C(=O)Nc2ccc(C(F)(F)F)c(Cl)c2)CC1` [Compound P5], the IC50 was found to be 49.5 nM.

Consider `COc1cc(NC(=O)N2CCC(F)(c3ncc([C@@H](O)CO)cc3F)CC2)ccc1C(F)(F)F` [Compound D5], for which the IC50 stood at 133 ± 29.1 nM.

For `COc1cc(NC(=O)N2CC=C(c3ncc([C@@H](O)CO)cc3Cl)CC2)ccc1C(F)(F)F` [Compound X5], the IC50 came to 230 ± 65.5 nM.

As for `COCc1cnc(C2=CCN(C(=O)Nc3ccc(C(F)(F)F)cn3)CC2)c(Cl)c1` [Compound H3], the IC50 came to 1110 ± 134 nM.

As to `COc1cc(C(F)(F)F)ccc1NC(=O)N1CC=C(c2ncc(CO)cc2Cl)CC1` [Compound J3], the IC50 came to 2940 ± 319 nM.

With `CC(C)c1cc(NC(=O)N2CC=C(c3ncccc3Cl)CC2)ccc1OC(F)(F)F` [Compound 205], the IC50 was more than 25000 nM.

With `O=C(Nc1nc2ccc(Cl)cc2[nH]1)N1CCC(F)(c2ncc([C@H](O)CO)cc2Cl)CC1` [Compound N4], the IC50 was determined as 1310 ± 220 nM.

Turning to `O=C(Nc1ccc(C(F)(F)F)c(-c2ccccc2)c1)N1CC=C(c2ncc(CO)cc2Cl)CC1` [Compound D3], the IC50 was found to be 565 ± 58.6 nM.

In the case of `CC(C)S(=O)(=O)c1ccc(NC(=O)N2CC=C(c3ncc(CO)cc3Cl)CC2)cc1C(F)(F)F` [Compound I3], the IC50 was determined as 1360 ± 337 nM.

In the case of `COc1cc(NC(=O)N2CC=C(c3ncc([C@H](O)CO)cc3Cl)CC2)ccc1C(F)(F)F` [Compound A2], the IC50 came to 84.1 ± 11.2 nM.

For `Cc1cc(NC(=O)N2CC=C(c3ncc([C@@H](O)CO)cc3Cl)CC2)ccc1OC(F)(F)F` [Compound R5], the IC50 came out at 346 nM.

On to `CC1(c2ncc([C@H](O)CO)cc2F)CCN(C(=O)Nc2ccc(C(F)(F)F)c(Cl)c2)CC1` [Compound Q3], for which the IC50 was found to be 14.3 ± 1.3 nM.

Turning to `Cc1cc2nc(NC(=O)N3CC=C(c4ncc([C@H](O)CO)cc4Cl)CC3)sc2cc1C` [Compound O5], the IC50 amounted to 244 nM.

As for `CN(C(=O)N1CC=C(c2ncc([C@H](O)CO)cc2Cl)CC1)c1ccc(C(F)(F)F)cc1` [Compound S4], the IC50 amounted to 7030 ± 2060 nM.
